Values after ≈ are worked out from the molar mass of the structure shown. Like-named read-outs stand apart in the source and are kept apart here.
Tests used:
human NCX 1.1 = target: T1, human NCX 1.1 (Homo sapiens, UniProt P32418); test: Fluorescence screening assay for hNCX 1.1 inhibition (reverse mode, Sf9 cells); type: cell-based; details: for IC50: Sf9 cells expressing human NCX1.1, reverse mode, fluorescence, n=3 assays
T1 construct: expressed in transfected cells
Method: Spodoptera frugiperda (Sf9; RRID:CVCL_0549) cells are widely used for the transient and stable expression of recombinant proteins. Here, Sf9 cells were stably transfected with human NCX 1.1 and maintained in spinner flasks with insect cell culture medium (TNM‐FH), supplemented with 10% FBS, antibiotic–antimycotic solution, and 50 μg·ml^−1 of blasticidin at 28°C in a non‐humidified, CO2‐free atmosphere. The Sf9 cell suspension was subcultured three times a week.
NCX reverse mode activity was stimulated via a 50% dilution of the extracellular Na^+ level using the internal pipettor of FLEXstation, a fluorescence imaging plate reader (Molecular Devices, USA), while simultaneously monitoring intracellular calcium levels. After dilution, the concentration of other ions remained the same, but Na^+ concentration was diluted to the half of original concentration of 172 to 86 mM. For Sf9 insect cells, normal extracellular Na^+ ion concentration is 172 mM. Typically, 50 μl of a solution containing 150,000–200,000 Sf9–NCX cells was loaded onto each well of a 96‐well plate. Cells were preincubated with the intracellular calcium dye Fluo‐4 and Fluo‐6, and the concentrations of the test compound (three replicates) were determined for about 1 h at room temperature before experimentation. The extracellular solution contained (in mM) 172 NaCl, 10 HEPES, 1 CaCl2, 1.2 MgCl2, 0.33 NaH2PO4, 5 glucose, and 5 probenecid. The pH was adjusted to 7.4 with NaOH. The extracellular Na^+ was diluted by the addition of a Na^+‐free extracellular solution (containing in mM: 147 N‐methyl‐D‐glucamine (NMDG), 10 HEPES, 1 CaCl2, 1.2 MgCl2, 0.33 NaH2PO4, and 5 glucose with the pH adjusted by HCl to 7.4)‐induced robust and reproducible elevation of intracellular calcium. The osmolarity of both solutions was adjusted to 340–355 mOsm in order to match the Sf9 cell media osmolarity. In each plate, the IC50 determination for each test compound was based on relative fluorescence changes in comparison with control and 5‐mM nickel acetate‐induced NCX inhibition.

Solubility = type: physicochemical; details: pH 7.4 phosphate buffer; for solubility: phosphate buffer, pH 7.4, aqueous buffer
L‐type calcium channel = L‐type calcium channel inhibition, fluorescence assay in IMR‐32 cells; type: cell-based, human; details: KCl depolarization, n=4 assays, read-out: L‐type Ca^2+ IC50
Method: CHO cells stably expressing either hERG1a (KV11.1) channels (KCNH2; RRID:CVCL_H512) or human 5‐HT2B receptors were cultured at 37°C in a 5% CO2/95% air atmosphere in the Ham's Nutrient Mixture F‐12 (HAM F‐12) medium supplemented with 10% FBS (heat inactivated), 100 μg·ml^−1 of hygromycin B (Invitrogen), and 100 μg·ml^−1 of geneticin or 100 IU·ml^−1 of penicillin and 100 IU·ml^−1 of streptomycin, 25‐mM HEPES, 500 μg·ml^−1 of geneticin, and 250 μg·ml^−1 of Zeocin®. Adhered cells were detached using either Detachin® solution or trypsin and replated twice a week. HEK 293 (RRID:CVCL_0045) and IMR‐32 cells (CCL‐127; RRID:CVCL_0346) were cultured similarly but maintained instead in DMEM, supplemented with 10% FBS (heat inactivated), 100 IU·ml^−1 of penicillin and 100 IU·ml^−1 of streptomycin, and 25‐mM HEPES, and in the case of the IMR‐32 cell line, with minimum essential medium (MEM) non‐essential amino acids. IMR‐32 cells are derived from a human neuroblastoma and endogenously express L‐type (CaV1.x) calcium channel (Sher, Gotti, Pandiella, Madeddu, & Clementi, 1988).
Undifferentiated IMR‐32 cells were harvested, centrifuged, and resuspended in a probenecid‐Ringer solution consisting (in mM) 150 NaCl, 3 KCl, 1.2 MgCl2, 1 CaCl2, 20 HEPES, 5 glucose and 2.5 probenecid (pH 7.4 adjusted with NaOH, osmolarity 320–324 mOsm). We added 0.04% Pluronic F‐127 and Fluo‐4 to this solution, and after incubating the cells for 30 min at room temperature, these additives were removed from the probenecid‐Ringer solution by centrifugation and resuspension. The cell suspension was pipetted (250,000 cells in 75 μl per well) into a 96‐well plate, into which the test compound (75 μl per well at […] the final concentration; five concentrations with eight replicates) had already been added. The plate was centrifuged once (5 min, at 287 x g) to ensure that the cells were moved to the bottom of the wells. FLEXstation was then used to measure the increase in intracellular calcium at 37°C, following depolarization, which was induced by the addition (50 μl per well) of a KCl‐Ringer solution containing (in mM) 200 KCl, 20 CaCl2, 1.2 MgCl2, 20 HEPES and 2.5 probenecid respectively (pH adjusted to 7.4 with KOH, with an osmolarity of 320–324 mOsm).

hERG = hERG (Homo sapiens, UniProt Q12809); test: hERG IC50 of Table 1 / Table S2 (method not assigned); type: cell-based; details: n=4 assays
Chain of hERG (Q12809 whole entry): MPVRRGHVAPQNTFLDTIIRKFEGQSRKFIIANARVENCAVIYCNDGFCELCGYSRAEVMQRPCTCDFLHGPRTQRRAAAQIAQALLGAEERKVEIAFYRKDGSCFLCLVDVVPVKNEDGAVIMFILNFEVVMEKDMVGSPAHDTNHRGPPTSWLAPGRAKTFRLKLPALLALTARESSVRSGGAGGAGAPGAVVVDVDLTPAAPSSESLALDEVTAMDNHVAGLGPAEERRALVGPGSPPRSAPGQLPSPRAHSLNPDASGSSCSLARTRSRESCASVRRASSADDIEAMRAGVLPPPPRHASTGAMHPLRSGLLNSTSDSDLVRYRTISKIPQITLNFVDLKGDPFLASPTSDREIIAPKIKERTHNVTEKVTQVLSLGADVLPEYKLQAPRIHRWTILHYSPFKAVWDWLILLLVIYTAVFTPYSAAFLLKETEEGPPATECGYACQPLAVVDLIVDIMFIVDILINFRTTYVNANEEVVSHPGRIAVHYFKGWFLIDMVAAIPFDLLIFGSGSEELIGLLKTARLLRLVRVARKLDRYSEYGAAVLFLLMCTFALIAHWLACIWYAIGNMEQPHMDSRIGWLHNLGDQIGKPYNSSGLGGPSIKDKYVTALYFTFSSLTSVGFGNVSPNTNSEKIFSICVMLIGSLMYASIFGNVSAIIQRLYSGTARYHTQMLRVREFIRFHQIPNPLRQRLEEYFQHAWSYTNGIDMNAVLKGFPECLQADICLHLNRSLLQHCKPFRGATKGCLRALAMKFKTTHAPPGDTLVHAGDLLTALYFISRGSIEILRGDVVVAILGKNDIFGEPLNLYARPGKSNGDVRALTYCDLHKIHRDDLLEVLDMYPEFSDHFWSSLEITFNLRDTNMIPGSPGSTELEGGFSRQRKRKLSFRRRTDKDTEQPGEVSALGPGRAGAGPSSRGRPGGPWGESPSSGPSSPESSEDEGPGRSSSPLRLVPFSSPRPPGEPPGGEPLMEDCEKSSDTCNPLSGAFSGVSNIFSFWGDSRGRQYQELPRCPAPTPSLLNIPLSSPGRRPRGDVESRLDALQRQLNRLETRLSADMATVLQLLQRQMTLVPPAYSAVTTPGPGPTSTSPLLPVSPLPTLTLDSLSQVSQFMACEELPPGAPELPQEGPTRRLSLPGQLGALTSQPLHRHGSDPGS

hNCX1 = hNCX1 (Homo sapiens, UniProt P32418); test: Confirmatory fluorescence assay for hNCX1 inhibition (forward mode, HEK293 cells, Charles River); type: cell-based; details: HEK293, forward mode, Table S2; read-out: hNCX1-HEK IC50
Method: A confirmatory hNCX1 inhibition assay was performed in Charles River Laboratories, Cleveland. Briefly, HEK293 cells stably expressing hNCX1 were plated in 384‐well black wall, clear‐bottom microtitre plates and the next day loaded with Fluo‐8 for 30 min at 37°C. A plate was inserted into a FLIPR^TETRA, and a baseline was recorded during a preincubation period where test compound or vehicle in a Na^+‐free HB‐PS containing thapsigargin (6 μM) and […] (30 μM) was added to each well for ~5 min. Next, the NCX1 stimulation period was recorded in which Na^+‐containing HB‐PS (with 2‐μM thapsigargin and 10‐μM FCCP) was added. The experiments were performed at room temperature. The kinetic data generated were reduced for each well to maximum relative fluorescence units (RFU) minus minimum RFU after subtracting bias based on the first sample. The mean of the max–min RFU values during the stimulation period for the 3–4 replicates at each concentration on a plate was then plotted versus concentration and fitted to a Hill equation.

NCX = test system: NCX; design: method as in Jost et al., 2013; Kohajda et al., 2016; details: Dog, reference not given, ref Jost et al., 2013, Kohajda et al., 2016, cited from earlier work
healthy rats = test: In vivo haemodynamics in healthy rats (supplement); design: species or system rat
Excerpt: In vivo haemodynamics in healthy rats
Experimental Animals and General Study Protocol
Rat was selected to the study as it is the most widely used rodent species in the toxicology studies performed for the small molecules during the drug development. […]
All animal experiments were made according to European Community Guidelines for the use of experimental animals and approved by Finnish National Animal Experiment Board. All studies complied with the ARRIVE guidelines, (NC3Rs Reporting Guidelines Working Group, 2010).
Specific pathogen free animals were housed in half -barrier rooms where special protecting clothing for personnel was required. Animal rooms were cleaned regularly 3 times per week and cages and bottles were […]
changed regular intervals once a week. Temperature was maintained at 22 ± 2°C and humidity at 55 ± 15%.
Light-dark cycle was lights on from 06.00 to 20.00h.
Male Sprague-Dawley rats (Harlan, Netherlands B.V.) were housed in polycarbonate cages (Makrolon® IV with stainless steel wire mesh lids). Maximally 5 rats were housed per cage with aspen chip bedding (Tapvei Ky, Kaavi, Finland). Rats had free access to water (twice filtered, Espoon Vesi) and rodent diet (SDS RM1
(P) SQC pelleted diet, Special Diet Services Ltd, Witham, England). Acclimation period before experiments was at least 5 days. Healthy 10-12 weeks aged weighing 300-400 g rats were randomized to ORM-11372, dobutamine or vehicle group.
At the end of the haemodynamic experiments, rats were terminated with an overdose of pentobarbital.
Anesthesia and ventilation
Rats were anaesthetised with isoflurane (2.25-2.5 %, Baxter) in carbogen (95 % O2 and 5 % CO2) and nitrous oxide (1:1) using a small rodent ventilator (Ugo Basile 7025, ~10 ml/kg, 60 strokes/min). The rats were infused with 0.9 % NaCl in […] at the stabilization and baseline level. Animals were placed on a heating table (+38°C). Tracheas were cannulated.
Systemic blood (SP) and left ventricular pressures (LVP) were measured with pressure transducers (BP:
Isotec, Hugo Sachs Elektronic, Germany; LVP: Mikro-Tip transducer SPR-249, Millar Instruments, USA). The signal was amplified (DC-bridge amplifier type 660, Hugo Sachs Elektronik, Germany), digitised (I/O connector block type SCB-68, National Instruments, USA), recorded and analysed (IHME 1.0.9, Fision Ltd, Finland). Left ventricular inotropic effect (LV +dP/dtmax) and relaxation (LV -dP/dtmin) and heart rate (HR) were analysed from LVP signal.
Blood sampling for the evaluation of plasma levels of the drug
At the end of each infusion, the blood samples (300-500 µl) were taken into chilled EDTA polypropylene tube (CapiJect®, Terumo) and centrifuged (4000 rpm, 10 min, at 4°C). Plasma was immediately frozen in polypropylene tubes and stored at –20°C. ORM-11372 and dobutamine were extracted from plasma samples using a liquid–liquid extraction and analysed using liquid chromatography–tandem mass spectrometry (Agilent Technologies series 1100 liquid chromatographic system and a Sciex LC-MS/MS API 4000 mass spectrometry). The lower limit of quantification for total plasma concentrations were 32.0 and 5.00 ng/ml from total for ORM-11372 and dobutamine, respectively. […]
The effects of dobutamine on blood pressure varies partially due to the use of racemate as active ingredient in the pharmaceutical formulation. (-)-dobutamine is α1-agonist and therefore causes increases in cardiac output and peripheral resistance. (+)-dobutamine acts via β1- and β2-adrenoceptors which leads to increase in heart rate and reduction in blood pressure 16.
Figure S20 Haemodynamics in healthy rats
Effects of ORM-11372 and dobutamine on haemodynamics in isoflurane anesthetized 10-12 weeks aged male Sprague-Dawley rats (Harlan, Netherlands B.V.) weighing 300-400 g. Shown are mean ± SEM and individual effects on the left ventricular contractility (LV+dP/dtmax, panel A), relaxation (LV-dP/dtmax, panel B), heart rate (panel C), and systolic arterial blood pressure (SAP, paned D). […]

[1] = test system: human ventricular trabeculae; details: 1 or 2 Hz; ORM‐11372 any tested concentration; dofetilide 0.1 μM (positive control)

SMILES	IC50 (human NCX 1.1)	solubility (Solubility; read-out: Solubility class)	IC50 (hERG)	further results
O=[N+]([O-])c1cccc(-c2ccc(CNc3ccc(F)c(Cl)c3)o2)c1 [ORM‐11023]	156 nM	–	–	–
O=[N+]([O-])c1ccccc1-c1ccc(CNc2ccccc2)o1 [ORM‐11024]	875 nM	–	–	–
Fc1ccc(NCc2ccc(-c3ccccc3Cl)o2)cc1Cl [ORM‐11165]	4 nM	< 10 µg/mL	9000 nM	IC50 (L‐type calcium channel): 2000 nM
O=[N+]([O-])c1ccc(Oc2ccc3c(c2)CCC(c2ccccc2)O3)nc1 (centres unmarked) [ORM-10103]	176 nM	–	–	IC50 (hNCX1): 1850 nM; Solubility class (Solubility): Insoluble (insoluble less than 10 µg/ml); IC50 (NCX; read-out: IC50 NCX forward): 960 nM; IC50 (NCX; read-out: IC50 NCX reverse): 780 nM
CC(CCc1ccc(O)cc1)NCCc1ccc(O)c(O)c1 (centres unmarked) [dobutamine, reference compound]	–	–	–	absolute maximum positive inotropic effect (healthy rats): 59%; free plasma concentration achieving 25% positive inotropic effect (healthy rats): 25 ± 1.6 nM; free plasma concentration at absolute maximum positive inotropic effect (healthy rats): 199 ± 17 nM; free plasma concentration at the 10±2% (ORM-11372) / 16±3% (dobutamine) inotropic effect (healthy rats): 16 ± 0.8 nM; positive inotropic effect (healthy rats; at free plasma concentration 4±0.3 nM (ORM-11372), 16±0.8 nM (dobutamine)): 16±3%; increase in heart rate (healthy rats; free plasma concentration 96 nM): 15±5%; increase in heart rate (healthy rats; free plasma concentration 848 nM): 25±7%; relaxation (healthy rats; free plasma concentrations 16 to 199 nM): no effects
CN(CCOc1ccc(NS(C)(=O)=O)cc1)CCc1ccc(NS(C)(=O)=O)cc1 [dofetilide, reference compound]	–	–	–	STV and triangulation (pro‐arrhythmia markers) [1]: increased
Fc1ccc(NCc2ccc(-c3ccc(Cl)cc3)o2)cc1Cl [ORM‐11190]	204 nM	–	–	–

More lines, main results first:

IC50 (human NCX 1.1)	solubility (Solubility; read-out: Solubility class)	SMILES	IC50 (hERG)	further results
2.5 nM	< 10 µg/mL	Fc1ccc(NCc2csc(-c3ccccc3Cl)n2)cc1F [ORM‐11863]	–	–
231 nM	< 10 µg/mL	O=[N+]([O-])c1ccccc1-c1ccc(CNc2ccc(F)c(Cl)c2)o1 [ORM‐120407, 3-chloro-4-fluoro-N-((5-(2-nitrophenyl)furan-2-yl)methyl)aniline]	2100 nM	inhibition at 10 µM (human NCX 1.1; 10 μM, fluorescence‐based assay, read-out: NCX1.1 inhibition): 87%; IC50 (L‐type calcium channel): 3100 nM; solubility (Solubility; read-out: Solubility): < 10 µg/mL
210 nM	10 to 100 µg/mL (≈ 29.7 to 297 µM)	Fc1ccc(NCc2ccc(-c3cccc(Cl)c3)o2)cc1Cl [ORM‐11217]	14600 nM	–
31 nM	10 to 100 µg/mL (≈ 33 to 330 µM)	Fc1ccc(NCc2coc(-c3ccccc3)n2)cc1Cl [ORM‐11298]	> 10000 nM	–
90 nM	10 to 100 µg/mL (≈ 34.9 to 349 µM)	Fc1ccc(NCc2ccc(-c3cccnc3)o2)cc1F [ORM‐11875]	–	–
3 nM	< 10 µg/mL	Fc1ccc(NCc2ccc(-c3ccccn3)o2)cc1F [ORM‐11817]	2400 nM	IC50 (L‐type calcium channel): 10400 nM

— PMC7707092, “Discovery and characterization of ORM‐11372, a novel inhibitor of the sodium‐calcium exchanger with positive inotropic activity” (British Journal of Pharmacology, 2020)
